Several values for one entry are separate records, joined by “and”; a condition that tells them apart may be missing. Equal values may be shown once. Inconclusive results and toxic doses are left out. No stated cut-off is given here; in the data, active means T/C of 150% or more; inactive means T/C below 125%.
System: L1210 leukemia ip in BDF1 mice, survival T/C
Test: NCI In Vivo Anticancer Drug Screen. Data for tumor model L1210 Leukemia (intraperitoneal) in B6D2F1 (BDF1) mice
Settings: endpoint: mean survival time, higher = longer survival
Summary of the method: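 Ratio derived from survival: compound-dosed mice over vehicle-dosed mice, all bearing a transplantable tumor.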

[1] = dose: 75.0 mg/kg/injection, schedule: Q01DX001 (ip), vehicle: saline
[2] = dose: 150.0 mg/kg/injection, schedule: Q01DX001 (ip), vehicle: saline
[3] = dose: 300.0 mg/kg/injection, schedule: Q01DX001 (ip), vehicle: saline
[4] = dose: 100.0 mg/kg/injection, schedule: Q01DX001 (ip), vehicle: saline with Tween-80
[5] = dose: 200.0 mg/kg/injection, schedule: Q01DX001 (ip), vehicle: saline with Tween-80
[6] = dose: 200.0 mg/kg/injection, schedule: Q01DX009 (ip), vehicle: saline with Tween-80
[7] = dose: 200.0 mg/kg/injection, schedule: Q04DX002 (ip), vehicle: saline with Tween-80
[8] = dose: 400.0 mg/kg/injection, schedule: Q01DX001 (ip), vehicle: saline with Tween-80
[9] = dose: 400.0 mg/kg/injection, schedule: Q04DX002 (ip), vehicle: saline with Tween-80
[10] = dose: 100.0 mg/kg/injection, schedule: Q01DX001 (ip), vehicle: other
[11] = dose: 200.0 mg/kg/injection, schedule: Q01DX001 (ip), vehicle: other
[12] = dose: 400.0 mg/kg/injection, schedule: Q01DX001 (ip), vehicle: other
[13] = dose: 100.0 mg/kg/injection, schedule: Q01DX001 (ip), vehicle: saline
[14] = dose: 200.0 mg/kg/injection, schedule: Q01DX001 (ip), vehicle: saline
[15] = dose: 100.0 mg/kg/injection, schedule: Q04DX002 (ip), vehicle: saline
[16] = dose: 200.0 mg/kg/injection, schedule: Q04DX002 (ip), vehicle: saline
[17] = dose: 400.0 mg/kg/injection, schedule: Q04DX002 (ip), vehicle: saline
[18] = dose: 100.0 mg/kg/injection, schedule: Q01DX001 (ip), vehicle: carboxymethylcellulose (CMC)
[19] = dose: 200.0 mg/kg/injection, schedule: Q01DX001 (ip), vehicle: carboxymethylcellulose (CMC)
[20] = dose: 100.0 mg/kg/injection, schedule: Q04DX003 (ip), vehicle: Klucel (hydroxypropylcellulose) (HPC)
[21] = dose: 200.0 mg/kg/injection, schedule: Q04DX003 (ip), vehicle: Klucel (hydroxypropylcellulose) (HPC)

Measured: T/C

Cn1c(Cc2ccccc2)c(-c2ccccc2)c(-c2ccccc2)c1Cc1ccccc1
inactive: [1] 94 % of control | [2] 88 % of control | [3] 93 % of control

CCCCCC(=O)C#Cc1ccccc1
inactive: dose: 6.25 mg/kg/injection, schedule: Q01DX009 (ip), vehicle: other 90 % of control | dose: 12.5 mg/kg/injection, schedule: Q01DX009 (ip), vehicle: other 95 % of control | dose: 25.0 mg/kg/injection, schedule: Q01DX009 (ip), vehicle: other 94 % of control and 96 % of control | dose: 50.0 mg/kg/injection, schedule: Q01DX009 (ip), vehicle: other 91 % of control | dose: 100.0 mg/kg/injection, schedule: Q01DX009 (ip), vehicle: other 93 % of control and 86 % of control

Cc1cccc(NC(=O)Oc2cc(C)c(Cl)cc2C(C)C)c1
inactive: [4] 103 % of control | dose: 100.0 mg/kg/injection, schedule: Q01DX009 (ip), vehicle: saline with Tween-80 95 % of control and 103 % of control | dose: 100.0 mg/kg/injection, schedule: Q04DX002 (ip), vehicle: saline with Tween-80 105 % of control and 108 % of control | dose: 100.0 mg/kg/injection, schedule: Q04DX003 (ip), vehicle: saline with Tween-80 90 % of control | [5] 104 % of control | [6] 98 % of control and 103 % of control | [7] 97 % of control and 87 % of control | dose: 200.0 mg/kg/injection, schedule: Q04DX003 (ip), vehicle: saline with Tween-80 98 % of control | [8] 106 % of control | dose: 400.0 mg/kg/injection, schedule: Q01DX009 (ip), vehicle: saline with Tween-80 95 % of control and 98 % of control | [9] 94 % of control and 100 % of control | dose: 400.0 mg/kg/injection, schedule: Q04DX003 (ip), vehicle: saline with Tween-80 100 % of control

CN(O)C(=O)OC(C)(C)C
inactive: [10] 108 % of control | [11] 108 % of control | [12] 114 % of control

C#CCCCCCC#[C][Hg][C]#CCCCCCC#C.C#CCCCCCC#[C][Hg][C]#CCCCCCC#C
inactive: [1] 90 % of control | [2] 92 % of control | [3] 95 % of control

CCOc1ccc(OCC)c(NC(=O)Nc2ccccc2Cl)c1
inactive: [7] 90 % of control | [9] 87 % of control

Fc1c(F)c(F)[c]([Sn]([c]2ccccc2)([c]2ccccc2)[c]2ccccc2)c(F)c1F
inactive: dose: 1.56 mg/kg/injection, schedule: Q01DX009 (ip), vehicle: saline with Tween-80 102 % of control | dose: 3.13 mg/kg/injection, schedule: Q01DX009 (ip), vehicle: saline with Tween-80 94 % of control | dose: 6.25 mg/kg/injection, schedule: Q01DX009 (ip), vehicle: saline with Tween-80 92 % of control

Cc1ccc(C(O)CCN2CCOCC2)c(C)c1 (configuration not stated)
inactive: [13] 102 % of control | [14] 104 % of control

CCCC[S][Hg][I]
inactive: dose: 3.12 mg/kg/injection, schedule: Q01DX009 (ip), vehicle: Klucel (hydroxypropylcellulose) (HPC) 98 % of control | dose: 6.25 mg/kg/injection, schedule: Q01DX009 (ip), vehicle: Klucel (hydroxypropylcellulose) (HPC) 98 % of control | dose: 12.5 mg/kg/injection, schedule: Q01DX009 (ip), vehicle: Klucel (hydroxypropylcellulose) (HPC) 110 % of control

O=C1C[C@@H]2OCC=C3C[N+]4([O-])CC[C@]56c7ccccc7N1[C@H]5[C@H]2[C@H]3C[C@@H]64 (some centres not stated)
inactive: [2] 106 % of control

O=C(c1ccccc1)c1cc(-c2ccccc2)n(C2CCCCC2)c1
inactive: dose: 25.0 mg/kg/injection, schedule: Q01DX009 (ip), vehicle: saline with Tween-80 96 % of control and 120 % of control | dose: 50.0 mg/kg/injection, schedule: Q01DX009 (ip), vehicle: saline with Tween-80 94 % of control and 95 % of control and 98 % of control | [6] 91 % of control and 92 % of control

Clc1cccc2c1Cc1c(Cl)cccc1C2
inactive: [4] 97 % of control | [5] 94 % of control | [8] 97 % of control

C/C(=N\N(Cc1ccc(CN(/N=C(\C)c2ccccc2)c2ccccc2)cc1)c1ccccc1)c1ccccc1
inactive: [10] 86 % of control | [11] 89 % of control | [12] 89 % of control

CCCC(=O)N1CCCC(C)C1 (configuration not stated)
inactive: [15] 111 % of control | [16] 107 % of control | [17] 104 % of control

CC(=O)NC(CSC(=N)N)C(=O)O (configuration not stated)
inactive: dose: 50.0 mg/kg/injection, schedule: Q01DX001 (ip), vehicle: carboxymethylcellulose (CMC) 107 % of control | [18] 98 % of control | [19] 98 % of control | dose: 400.0 mg/kg/injection, schedule: Q01DX001 (ip), vehicle: carboxymethylcellulose (CMC) 102 % of control

CCN(CC)CCNc1nc(N)nc2c1nnn2CC
inactive: dose: 100.0 mg/kg/injection, schedule: Q04DX003 (ip), vehicle: gum acacia 93 % of control | dose: 200.0 mg/kg/injection, schedule: Q04DX003 (ip), vehicle: gum acacia 91 % of control

O=C(Oc1ccc([N+](=O)[O-])cc1)c1ccc(CBr)cc1
inactive: dose: 50.0 mg/kg/injection, schedule: Q01DX009 (ip), vehicle: saline 104 % of control | dose: 100.0 mg/kg/injection, schedule: Q01DX009 (ip), vehicle: saline 102 % of control | dose: 100.0 mg/kg/injection, schedule: Q04DX003 (ip), vehicle: saline 94 % of control | dose: 200.0 mg/kg/injection, schedule: Q01DX009 (ip), vehicle: saline 94 % of control | dose: 200.0 mg/kg/injection, schedule: Q04DX003 (ip), vehicle: saline 94 % of control

CC(O)(c1ccccc1)C1C(c2ccccc2)N1Cc1ccccc1 (configuration not stated)
inactive: dose: 100.0 mg/kg/injection, schedule: Q04DX003 (ip), vehicle: saline sonified 96 % of control | dose: 200.0 mg/kg/injection, schedule: Q04DX003 (ip), vehicle: saline sonified 94 % of control | dose: 400.0 mg/kg/injection, schedule: Q04DX003 (ip), vehicle: saline sonified 91 % of control

CC(C)(CO)N=Cc1cccc(Br)c1
inactive: [13] 96 % of control | [14] 98 % of control | dose: 400.0 mg/kg/injection, schedule: Q01DX001 (ip), vehicle: saline 98 % of control

CNC1(c2ccc(F)cc2)CCCCC1
inactive: dose: 50.0 mg/kg/injection, schedule: Q01DX001 (ip), vehicle: saline 98 % of control | [13] 98 % of control

CC(=O)C1CCC2C3CC=C4CC(O)CCC4(C)C3CCC12C (configuration not stated)
inactive: dose: 100.0 mg/kg/injection, schedule: Q04DX002 (ip), vehicle: Klucel (hydroxypropylcellulose) (HPC) 91 % of control | [20] 89 % of control | dose: 200.0 mg/kg/injection, schedule: Q04DX002 (ip), vehicle: Klucel (hydroxypropylcellulose) (HPC) 100 % of control | [21] 92 % of control | dose: 400.0 mg/kg/injection, schedule: Q04DX002 (ip), vehicle: Klucel (hydroxypropylcellulose) (HPC) 91 % of control

CC(C)N(C(=O)Nc1ccccc1Cl)c1ccccc1
inactive: dose: 100.0 mg/kg/injection, schedule: Q01DX009 (ip), vehicle: Klucel (hydroxypropylcellulose) (HPC) 96 % of control | [20] 92 % of control | dose: 200.0 mg/kg/injection, schedule: Q01DX009 (ip), vehicle: Klucel (hydroxypropylcellulose) (HPC) 92 % of control | [21] 100 % of control | dose: 400.0 mg/kg/injection, schedule: Q01DX009 (ip), vehicle: Klucel (hydroxypropylcellulose) (HPC) 97 % of control | dose: 400.0 mg/kg/injection, schedule: Q04DX003 (ip), vehicle: Klucel (hydroxypropylcellulose) (HPC) 92 % of control

O=C(O)c1cc(-c2ccccc2)cc(Br)c1O
inactive: [18] 93 % of control | [19] 95 % of control

O=C(CCC1CCCC1)c1ccccc1
inactive: dose: 12.5 mg/kg/injection, schedule: Q04DX002 (ip), vehicle: saline 100 % of control | dose: 25.0 mg/kg/injection, schedule: Q04DX002 (ip), vehicle: saline 98 % of control | dose: 50.0 mg/kg/injection, schedule: Q04DX002 (ip), vehicle: saline 98 % of control | [15] 98 % of control | [16] 98 % of control | [17] 91 % of control
